# According to patent publication US8466340B2, “Mouse model for pompe disease and methods of use thereof” (Amicus Therapeutics, Inc., priority 2009, dated 2013):
# Counter-ions that a name gives are not always drawn.
# Tests used:
# GAA [1] = biological target: T1, GAA (Mus musculus, UniProt P70699); test: GAA activity, protein and processing in mice administered DNJ orally; assay type: in vivo; conditions: data not shown
# T1 construct: from tissue
# Half-life of DNJ = conditions: stated within a theory on/off dosing, compared to GAA (days); no method
# hP545L GAA [2] = biological target: T2, hP545L GAA (Homo sapiens, UniProt P10253, P545L); test: GAA protein level by Western blotting in tissues of DNJ-dosed hP545L GAA Tg/KO mice; assay type: in vivo; conditions: 'Moderate' hP545L GAA Tg/KO mice; DNJ 30, 100, 300 mg/kg/day oral, 4 weeks; disease-relevant tissues
# Method: (§1) Mice were euthanized with CO2 and body weights were recorded. […] Plasma was collected by spinning blood at 2700 g for 10 minutes at 4° C. Heart, diaphragm, gastrocnemius, soleus, skin, and brain tissues were removed, washed in cold PBS, blotted dry, and weighed before storing on dry ice. For biochemical assays (GAA activity, glycogen and Western blotting), lysates were prepared by homogenizing ˜50 mg tissue for 3-5 seconds on ice with a micro homogenizer in 200 μL Lysis Buffer (25 mM Bis-Tris pH 6.5, 150 mM NaCl, 1% Triton X-100 pH 6.5). For histology assays, tissues were harvested and fixed immediately in 3.7% Formaldehyde/90% Ethanol mix. After fixation, the samples were processed in various grades (10, 20, 50, 75, 100%) of alcohol and embedded in paraffin.
# Tissue lysates (50 μg total protein per lane) were subjected to SDS-PAGE on 12% gels (Bio-Rad, Hercules, Calif.), transferred to PVDF membranes (Bio-Rad), and immunoblotted with a rabbit anti-human GAA (kind gift of Dr. Barry Byrne) polyclonal antibody (1:500 dilution). Protein bands were detected using peroxidase-conjugated goat anti-rabbit secondary antibodies (1:1000) (Jackson Immunosearch Labs, West Grove, Pa.) in combination with enhanced chemiluminescence (Pierce). […]
# (§2) The dosing solutions were made fresh each week and water consumption was monitored daily.
# GAA [3] = test: GAA activity, protein and processing in monkeys administered DNJ orally; assay type: in vivo, cynologous monkeys; conditions: cynomolgus monkeys, data not shown
# alpha-galactosidase = biological target: T3, alpha-galactosidase (Mus musculus, UniProt P51569); test: Specificity: alpha-galactosidase in mice administered DNJ; assay type: in vivo; conditions: data not shown
# T3 construct: from tissue
# T3 sequence (P51569 32-419): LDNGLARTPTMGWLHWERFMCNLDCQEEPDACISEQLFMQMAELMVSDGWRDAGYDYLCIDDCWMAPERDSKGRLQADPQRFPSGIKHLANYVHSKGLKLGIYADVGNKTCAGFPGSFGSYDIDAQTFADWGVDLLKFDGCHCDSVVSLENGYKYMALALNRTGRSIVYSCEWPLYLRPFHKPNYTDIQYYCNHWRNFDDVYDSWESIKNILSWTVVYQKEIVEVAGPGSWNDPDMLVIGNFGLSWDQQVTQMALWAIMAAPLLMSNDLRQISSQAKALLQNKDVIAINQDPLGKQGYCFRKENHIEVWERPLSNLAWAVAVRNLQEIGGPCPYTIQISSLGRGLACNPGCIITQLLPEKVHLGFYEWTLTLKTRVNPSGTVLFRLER
# hP545L GAA [4] = biological target: T2, hP545L GAA; test: Biochemical assay for determining GAA level in tissues of DNJ-dosed hP545L GAA Tg/KO mice; assay type: in vivo; conditions: 'Moderate' hP545L GAA Tg/KO mice; DNJ 30, 100, 300 mg/kg/day oral ad libitum in drinking water, 4 weeks; disease-relevant tissues
# Method: as §1, §2
# (§3) After dosing was completed, mice were euthanized and plasma samples as well as tissue samples harvested as described above.
# [5] = system: mutant forms of GAA in Pompe patient-derived fibroblasts; test: Level of mutant GAA in Pompe patient-derived fibroblasts; assay type: cell-based, human; conditions: data not shown
# [6] = system: mutated form of GAA (M519V, P545L, G549R, L552P) in HEK293 cells; test: GAA activity, protein and processing in HEK293 cells transiently-transfected with mutated GAA; assay type: cell-based; conditions: data not shown
# hP545L GAA Tg/KO mice = test: Biochemical assay for determining glycogen level (amyloglucosidase digestion) in tissues of DNJ-dosed hP545L GAA Tg/KO mice; assay type: in vivo, mouse; conditions: 'Moderate' hP545L GAA Tg/KO mice
# Method: as §1
# Tissue glycogen levels were measured in supernatants of heat denatured (99° C. for 10 min.) lysates as prepared above for GAA assay. Samples were analyzed in duplicates by adding 4 μL of lysate to 36 μL water with and without 10 μL of 800 units/mL of amyloglucosidase enzyme (Sigma) and incubated for 1 hour at 50° C. The reaction was stopped by heat inactivation at 100° C. for 10 min. Finally 200 μL of glucose reagent was added to estimate the amount of glucose released at 340 nm absorbance on Spectramax. A glycogen standard curve ranging from 400 μg/mL to 5 μg/mL was run each day for conversion of absorbance data to absolute glycogen levels. Data are ultimately expressed as μg of glycogen cleaved/milligram of protein. The protein levels were measured in lysates (before denaturing) using Micro BCA Protein Assay Kit according to the manufacturer's instructions.
# as §2, §3
# Mice were orally dosed (ad libitum in drinking water) either daily or using one of three less-frequent on/off regimens (i.e., (i) 3 days on/4 days off; (ii) 5 days on/2 days off; or (iii) 7 days on/7 days off). […] The dosing solution was made fresh each week and water consumption was monitored daily.
# After dosing was completed, mice were euthanized and tissue samples harvested as described above.
# [7] = system: human GAA missense mutations; test: In vitro studies to identify a human GAA missense mutation responsive to DNJ; assay type: cell-based; conditions: data not shown
# [8] = biological target: human GAA missense mutations (Homo sapiens, UniProt P10253, P545L); test: as above; assay type: cell-based; conditions: 5-day incubation with DNJ, data not shown
# [9] = system: mutant forms of recombinant human GAA in COS-7 cells; test: Level of mutant GAA in transiently-transfected COS-7 cells; assay type: cell-based; conditions: COS-7 cells transiently-transfected with recombinant human GAA; data not shown
# recombinant human GAA = recombinant human GAA (Homo sapiens, UniProt P10253); test: Binding to and thermostability of recombinant human GAA in vitro; conditions: data not shown
# [10] = DNJ 30, 100, 300 mg/kg/day oral, 4 weeks
# T1 sequence (P70699 70-953): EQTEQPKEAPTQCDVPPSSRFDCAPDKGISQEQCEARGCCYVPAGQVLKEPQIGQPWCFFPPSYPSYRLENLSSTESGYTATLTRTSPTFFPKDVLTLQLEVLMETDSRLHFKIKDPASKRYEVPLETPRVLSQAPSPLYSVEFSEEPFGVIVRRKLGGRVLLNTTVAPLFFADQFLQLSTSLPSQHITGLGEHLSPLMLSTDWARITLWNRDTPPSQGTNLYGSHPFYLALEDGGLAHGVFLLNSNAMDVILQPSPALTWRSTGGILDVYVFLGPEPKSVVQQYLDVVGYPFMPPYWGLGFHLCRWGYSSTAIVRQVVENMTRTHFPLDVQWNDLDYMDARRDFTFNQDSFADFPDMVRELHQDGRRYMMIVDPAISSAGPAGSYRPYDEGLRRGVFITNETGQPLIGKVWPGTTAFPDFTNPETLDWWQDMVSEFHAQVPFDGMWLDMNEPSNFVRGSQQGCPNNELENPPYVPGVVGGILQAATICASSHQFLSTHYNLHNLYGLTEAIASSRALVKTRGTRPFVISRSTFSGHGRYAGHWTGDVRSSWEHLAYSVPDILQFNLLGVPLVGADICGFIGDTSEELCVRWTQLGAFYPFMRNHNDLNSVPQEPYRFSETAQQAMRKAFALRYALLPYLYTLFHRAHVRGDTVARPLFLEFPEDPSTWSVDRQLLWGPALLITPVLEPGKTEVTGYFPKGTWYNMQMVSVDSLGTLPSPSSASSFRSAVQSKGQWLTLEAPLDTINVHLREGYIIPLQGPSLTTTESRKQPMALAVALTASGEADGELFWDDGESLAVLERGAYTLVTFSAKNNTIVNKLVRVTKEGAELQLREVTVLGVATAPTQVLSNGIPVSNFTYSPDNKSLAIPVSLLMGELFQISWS
smiles,measurement,setting,value
"OC[C@H]1NC[C@H](O)[C@@H](O)[C@@H]1O [DNJ, 1-deoxynojirimycin-HCl]",GAA protein levels,GAA [1],increased
same,processing to the 70-kDa mature form of GAA,GAA [1],increased
same,GAA activity,GAA [1]; oral,increase in a dose-dependent manner
same,half-life of DNJ,Half-life of DNJ,hours
same,GAA protein levels,hP545L GAA [2],significant and dose-dependent increase
same,processing of GAA protein to its 76 kDa mature form,hP545L GAA [2],significant and dose-dependent increase
same,GAA activity,GAA [3]; oral,increase in a dose-dependent manner
same,GAA protein levels,GAA [3],increased
same,processing to the 70-kDa mature form of GAA,GAA [3],increased
same,alpha-galactosidase activity,alpha-galactosidase,no increase
same,GAA levels (tissue GAA activity),hP545L GAA [4],significant and dose-dependent increase
same,level of multiple different mutant forms of GAA,[5],significantly increase
same,"GAA processing to the 95-, 76-, and 70-kDa forms",[6],increase
same,GAA protein levels,[6],increase
same,level of GAA activity,[6],increase
same,"glycogen reduction, on/off regimens compared to daily dosing","hP545L GAA Tg/KO mice; 100 mg/kg/day oral, 4 weeks, p<0.05 daily vs. on/off",greater glycogen reduction
same,glycogen levels in disease-relevant tissue,"hP545L GAA Tg/KO mice; 100 mg/kg/day oral, daily or on/off (3/4, 5/2, 7/7 days), 4 weeks, majority of tissues examined, p<0.05 vs. untreated",significant reduction
same,glycogen levels of brain,hP545L GAA Tg/KO mice; [10],robust reduction
same,glycogen levels of diaphragm,hP545L GAA Tg/KO mice; [10],moderate reduction
same,glycogen levels of gastrocnemius,hP545L GAA Tg/KO mice; [10],moderate reduction
same,glycogen levels of heart,hP545L GAA Tg/KO mice; [10],moderate reduction
same,glycogen levels of skin,hP545L GAA Tg/KO mice; [10],robust reduction
same,glycogen levels of soleus,hP545L GAA Tg/KO mice; [10],robust reduction
same,tissue glycogen levels,"hP545L GAA Tg/KO mice; four-week oral administration (ad libitum), tissues overall",decrease
same,"responsiveness of P285R, E262K, E579K GAA mutations to DNJ",[7],even more responsive than P545L
same,"GAA activity, P545L mutation",[8],"robust, reproducible, dose-dependent and statistically-significant increase"
same,level of multiple different mutant forms of GAA,[9],significantly increase
same,binding to GAA,recombinant human GAA,directly bind
same,thermostability of recombinant human GAA,recombinant human GAA,concentration-dependent increase
